Where two headings read alike, the source gives them in different places.
Test: Pharmacokinetic evaluation following a single oral and intravenous administration
Assay type: in vivo, CD1 mouse
Conditions: CD1, mouse, plasma; for C0 / AUC(0-inf) / AUC(0-t) / MRT inf / half-life / Vd: Table 10, IV Dose: 1 mg/kg
Protocol: A NMP stock solution was prepared by adding 1.136 mL of NMP to 5.68 mg of compound no. 42140 with vortexing and sonification, to obtain a solution with a concentration at 5 mg/mL of 42140:01. Next, to prepare an intravenous formulation, 0.100 mL of the 5 mg/mL stock solution was placed in a new vial. 0.100 mL of NMP and 0.400 mL of PEG400 were added with vortexing and sonification, followed by addition of 0.400 mL of saline with vortexing and sonification. […] 42140:01. Alternatively, to prepare an oral formulation, 0.200 mL of the 5 mg/mL stock solution was placed in a new vial. 0.400 mL of PEG400 was added with vortexing and sonification, followed by addition of 0.400 mL of saline with vortexing and sonifiction. […] 42140:01.
(§1) Briefly, the desired serial concentrations of working solutions were achieved by diluting a stock solution of the compound with 100% acetonitrile. 3 μL of working solutions (5, 10, 20, 50, 100, 500, 1000, 5000, 10000 ng/mL) were added to 30 μL of the blank CD1 mouse plasma to achieve calibration standards of 0.5-1000 ng/mL (0.5, 1, 2, 5, 10, 50, 100, 500, 1000 ng/mL) in a total volume of 33 μL. Five quality control samples at 1 ng/mL, 2 ng/mL, 5 ng/mL, 50 ng/mL and 800 ng/mL for plasma were prepared independently of those used for the calibration curves. These QC samples were prepared on the day of analysis in the same way as calibration standards.
Next, 33 μL standards, 33 μL QC samples, and 33 μL unknown samples (30 μL plasma with 3 μL blank solution) were added to 200 μL of acetonitrile containing IS mixture for precipitating protein, respectively. Then the samples were vortexed for 30 s. After centrifugation at 4 degree Celsius, 4000 rpm for 15 min, 3 μL of supernatant was injected into the LC/MS/MS system for quantitative analysis.
HPLC analysis was performed using 100% water with 0.1% formic acid (Solution A) and 100% acetonitrile with 0.1% formic acid (Solution B) with a flow rate of 0.6 mL/min.
A NMP stock solution was prepared by adding 2.092 mL of NMP to 10.46 mg of […] with vortexing and sonification, to obtain a solution with a concentration at 5 mg/mL of […]. Next, to prepare an intravenous formulation, 0.100 mL of the 5 mg/mL stock solution was placed in a new vial. 0.100 mL of NMP and 0.400 mL of PEG400 were added with vortexing and sonification, followed by addition of 0.400 mL of saline with vortexing and sonification. […] 42320:01. Alternatively, to prepare an oral formulation, 0.200 mL of the 5 mg/mL stock solution was placed in a new vial. 0.400 mL of PEG400 was added with vortexing and sonification, followed by addition of 0.400 mL of saline with vortexing and sonifiction. […] 42320:01.
as §1, with “50 ng/mL,” for “50 ng/mL”

[1] = iv, 1 mg/kg, Table 9, IV Dose: 1 mg/kg, Mouse 1, read-out: Concentration
[2] = iv, 1 mg/kg, Table 9, IV Dose: 1 mg/kg, Mouse 2, read-out: Concentration
[3] = iv, 1 mg/kg, Table 9, IV Dose: 1 mg/kg, Mouse 3, read-out: Concentration
[4] = iv, 1 mg/kg, Table 9, IV Dose: 1 mg/kg, mean, read-out: Concentration, Mean
[5] = po, 5 mg/kg, Table 11, PO Dose: 5 mg/kg, Mouse 4, read-out: Concentration
[6] = po, 5 mg/kg, Table 11, PO Dose: 5 mg/kg, Mouse 5, read-out: Concentration
[7] = po, 5 mg/kg, Table 11, PO Dose: 5 mg/kg, Mouse 6, read-out: Concentration
[8] = po, 5 mg/kg, Table 11, PO Dose: 5 mg/kg, mean, read-out: Concentration, Mean

`CC(=O)N[C@@H](Cc1ccc(CN(C)C)cc1)c1nnc(-c2cccc(OC(F)(F)F)c2)s1` [Compound 42320, N-(2-(4-((dimethylamino)methyl)phenyl)-1-(5-(3-(trifluoromethoxy)phenyl)-1,3,4-thiadiazol-2-yl)ethyl)acetamide] gave a concentration at 5 min [1] of 86.9 ng/mL, a concentration at 5 min [2] of 90.3 ng/mL and a concentration at 5 min [3] of 85.7 ng/mL. For the same molecule, the concentration at 5 min [4] was 87.6 ng/mL, the concentration at 0.25 h [1] was 68.4 ng/mL and the concentration at 0.25 h [2] was 65 ng/mL. It also gave a concentration at 0.25 h [3] of 68.3 ng/mL, a concentration at 0.25 h [4] of 67.2 ng/mL and a concentration at 0.5 h [1] of 68 ng/mL. It also gave a concentration at 0.5 h [2] of 59.2 ng/mL, a concentration at 0.5 h [3] of 52.7 ng/mL and a concentration at 0.5 h [4] of 60 ng/mL. It also gave a concentration at 1 h [1] of 41.2 ng/mL, a concentration at 1 h [2] of 39.4 ng/mL and a concentration at 1 h [3] of 47.1 ng/mL. For the same molecule, the concentration at 1 h [4] was 42.6 ng/mL, the concentration at 2 h [1] was 26.5 ng/mL and the concentration at 2 h [2] was 23.9 ng/mL. For the same molecule, the concentration at 2 h [3] was 25.9 ng/mL, the concentration at 2 h [4] was 25.4 ng/mL and the concentration at 4 h [1] was 11.9 ng/mL. The concentration at 4 h [2] was 9.71 ng/mL, the concentration at 4 h [3] was 13 ng/mL and the concentration at 4 h [4] was 11.5 ng/mL. It also gave a concentration at 8 h [1] of 4.08 ng/mL, a concentration at 8 h [2] of 3.66 ng/mL and a concentration at 8 h [3] of 5.31 ng/mL. It also gave a concentration at 8 h [4] of 4.35 ng/mL, a C0 (iv, 1 mg/kg, Mouse 1) of 97.9 ng/mL and an AUC(0-inf) (iv, 1 mg/kg, Mouse 1, read-out: AUCInf) of 183 ng·h/mL. For the same molecule, the AUC(0-t) (iv, 1 mg/kg, Mouse 1, read-out: AUClast) was 169 ng·h/mL, the MRT inf (iv, 1 mg/kg, Mouse 1, read-out: MRTInf—obs) was 2.66 h and the half-life (iv, 1 mg/kg, Mouse 1, read-out: T1/2 (converted)) was 2.27 h. The Vd (iv, 1 mg/kg, Mouse 1, read-out: Vss—obs) was 14.6 L/kg, the C0 (iv, 1 mg/kg, Mouse 2) was 106 ng/mL and the AUC(0-inf) (iv, 1 mg/kg, Mouse 2, read-out: AUCInf) was 165 ng·h/mL. For the same molecule, the AUC(0-t) (iv, 1 mg/kg, Mouse 2, read-out: AUClast) was 153 ng·h/mL, the MRT inf (iv, 1 mg/kg, Mouse 2, read-out: MRTInf—obs) was 2.59 h and the half-life (iv, 1 mg/kg, Mouse 2, read-out: T1/2 (converted)) was 2.29 h. For the same molecule, the Vd (iv, 1 mg/kg, Mouse 2, read-out: Vss—obs) was 15.7 L/kg, the C0 (iv, 1 mg/kg, Mouse 3) was 96 ng/mL and the AUC(0-inf) (iv, 1 mg/kg, Mouse 3, read-out: AUCInf) was 193 ng·h/mL. It also gave an AUC(0-t) (iv, 1 mg/kg, Mouse 3, read-out: AUClast) of 172 ng·h/mL, an MRT inf (iv, 1 mg/kg, Mouse 3, read-out: MRTInf—obs) of 3.17 h and a half-life (iv, 1 mg/kg, Mouse 3, read-out: T1/2 (converted)) of 2.68 h. For the same molecule, the Vd (iv, 1 mg/kg, Mouse 3, read-out: Vss—obs) was 16.4 L/kg, the AUC(0-inf) (iv, 1 mg/kg, mean, read-out: AUCInf, Mean) was 180 ng·h/mL and the AUC(0-t) (iv, 1 mg/kg, mean, read-out: AUClast, Mean) was 165 ng·h/mL. The MRT inf (iv, 1 mg/kg, mean, read-out: MRTInf—obs, Mean) was 2.81 h, the half-life (iv, 1 mg/kg, mean, read-out: T1/2, Mean (converted)) was 2.41 h and the Vd (iv, 1 mg/kg, mean, read-out: Vss—obs, Mean) was 15.6 L/kg. It also gave a concentration at 0.25 h [5] of 100 ng/mL, a concentration at 0.25 h [6] of 71.4 ng/mL and a concentration at 0.25 h [7] of 78.6 ng/mL. The concentration at 0.25 h [8] was 83 ng/mL, the concentration at 0.5 h [5] was 201 ng/mL and the concentration at 0.5 h [6] was 121 ng/mL. It also gave a concentration at 0.5 h [7] of 122 ng/mL, a concentration at 0.5 h [8] of 148 ng/mL and a concentration at 1 h [5] of 193 ng/mL. It also gave a concentration at 1 h [6] of 119 ng/mL, a concentration at 1 h [7] of 112 ng/mL and a concentration at 1 h [8] of 141 ng/mL.
